26 compounds from patent US10112940B2, “Histone demethylase inhibitors” (Celgene Quanticel Research, Inc., priority 2014, dated 2018) can be followed below.

One assay has as its target JMJD2C (Homo sapiens (Human), UniProt Q9H3R0). Nature of the assay: JMJD2C in vitro enzyme inhibition assay (TR-FRET). Format: biochemical. Conditions: 0.3 nM JMJD2C, 300 nM H3K9me3-biotin peptide, 2 μM alpha-ketoglutaric acid, 30 minutes. As to the method: This assay determines the ability of a test compound to inhibit JMJD2C demethylase activity. Baculovirus expressed JMJD2C (GenBank Accession #BC143571, AA 2-372) was purchased from BPS Bioscience (Cat#50105).
The ability of test compounds to inhibit the activity of JMJD2C was determined in 384-well plate format under the following reaction conditions: 0.3 nM JMJD2C, 300 nM H3K9me3-biotin labeled peptide (Anaspec cat #64360), 2 μM alpha-ketoglutaric acid in assay buffer of 50 mM HEPES, pH7.3, 0.005% Brij35, 0.5 mM TCEP, 0.2 mg/ml BSA, 50 μM sodium L-ascorbate, and 2 μM ammonium iron(II) sulfate. Reaction product was determined quantitatively by TR-FRET after the addition of detection reagent Phycolink Streptavidin-allophycocyanin (Prozyme) and Europium-anti-di-methylated histone H3 lysine 9 (H3K9me2) antibody (PerkinElmer) in the presence of 5 mM EDTA in LANCE detection buffer (PerkinElmer) at a final concentration of 50 nM and 1 nM, respectively.
The assay reaction was initiated by the following: 2 μl of the mixture of 900 nM H3K9me3-biotin labeled peptide and 6 μM alpha-ketoglutaric acid with 2 μl of 11-point serial diluted inhibitor in 3% DMSO were added to each well of the plate, followed by the addition of 2 μl of 0.9 nM JMJD2C to initiate the reaction. The reaction mixture was incubated at room temperature for 30 minutes, and terminated by the addition of 6 μl of 5 mM EDTA in LANCE detection buffer containing 100 nM Phycolink Streptavidin-allophycocyanin and 2 nM Europium-anti-H3K9me2 antibody. Plates were read by EnVisionMultilabel Reader in TR-FRET mode (excitation at 320 nm, emission at 615 nm and 665 nm) after 1 hour incubation at room temperature. A ratio was calculated (665/615) for each well and fitted to determine inhibition constant (IC50).
The ability of the compounds disclosed herein to inhibit demethylase activity was quantified and the respective IC50 value was determined. Table 3 provides the IC50 values of various compounds disclosed herein.
(TR-FRET usually uses a lanthanide donor and a delayed reading to cut background.)

Assay [1] relates to KYSE-150 esophageal carcinoma cell line. The assay is described as follows: In vitro cell-based assay: BrdU incorporation cell proliferation ELISA. More on the design: species or system human. The note with it: Homo sapiens, KYSE-150 cells, 168 hours compound incubation, read-out: Cellular IC50. As to the method:
Cell lines tested include the JMJD2C gene amplified cell line KYSE-150. This is a quantitative ELISA assay measuring DNA incorporation of BrdU during S-phase as a direct readout of cellular proliferation.
Assay Principle: This is a colorimetric immunoassay for the quantification of cell proliferation. Cells treated for 168 hours with test compounds are assayed for their ability to go through S-phase as a measure of their proliferative potential.
Assay Method: The human KYSE-150 (SMAD4 mut, TP53 mut) esophageal carcinoma cell line was seeded at 2,000 cells/well on a 96-well tissue culture treated plate. After an overnight incubation, cells were treated with compound in an 11-point dilution series with final concentrations ranging from 100 μM to 2 nM. Cells were then incubated in the presence of compound for 168 hours. After compound incubation the cells were assayed using a BrdU Cell Proliferation ELISA (Roche). The cells were first incubated with BrdU labeling reagent for 2 hours. After 2 hours, the BrdU incorporated cells were fixed and denatured, probed with an anti-BrdU-Peroxidase antibody for 1.5 hours and washed. Finally, a tetramethylbenzidine peroxidase substrate was added to each well for 15 minutes followed by a H2SO4 stop solution. The plate was read at 450 nm, and the raw optical density data was transferred into XLFit (IDBS) for IC50 calculation using the formula: fit=(D+((Vmax*(x^n))/((x^n)+(Km^n))))
Table 4 provides the cellular IC50 values of various compounds disclosed herein.

pIC50: −log10 of the molar value.

As usually defined, the pIC50 is −log10 of the IC50, conventionally taken in molar units.

Chain of JMJD2C (Q9H3R0 2-372): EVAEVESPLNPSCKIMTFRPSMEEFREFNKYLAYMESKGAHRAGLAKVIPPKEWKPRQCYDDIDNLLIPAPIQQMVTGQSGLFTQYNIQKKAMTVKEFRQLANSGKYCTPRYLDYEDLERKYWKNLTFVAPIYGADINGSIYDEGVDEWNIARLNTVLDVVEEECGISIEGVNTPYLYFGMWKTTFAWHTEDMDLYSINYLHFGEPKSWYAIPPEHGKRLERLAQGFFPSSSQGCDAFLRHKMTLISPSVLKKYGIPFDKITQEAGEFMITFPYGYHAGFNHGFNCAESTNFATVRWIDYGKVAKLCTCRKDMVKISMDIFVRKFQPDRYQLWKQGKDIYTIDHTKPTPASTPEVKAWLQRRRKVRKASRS

With `CN(c1ccc(Oc2nc(O)c3ccncc3n2)cc1)c1ccc(N2CCC(N)CC2)cc1` [Example 23, 2-(4-{[4-(4-amino-piperidin-1-yl)-phenyl]-methyl-amino}-phenoxy)-pyrido[3,4-d]pyrimidin-4-ol], the pIC50 was 6.00 to 7.00 against JMJD2C and 5.00 to 6.00 in assay [1].

As to `CN(C(=O)Cc1ccccc1)c1ccc(Oc2nc(O)c3ccncc3n2)cc1` [Example 24, N-[4-(4-hydroxy-pyrido[3,4-d]pyrimidin-2-yloxy)-phenyl]-N-methyl-2-phenyl-acetamide], the pIC50 against JMJD2C is 6.00 to 7.00; in assay [1], below 5.00.

Regarding `Oc1nc(Oc2ccc(N3CCOC(c4ccccc4)C3)cc2)nc2cnccc12` (stereo not shown) [Example 26, 2-[4-(2-phenyl-morpholin-4-yl)-phenoxy]-pyrido[3,4-d]pyrimidin-4-ol], the figures for the pIC50 (on JMJD2C; in assay [1]) were 6.00 to 7.00 and below 5.00, respectively.

`CN(c1ccc(Oc2nc(O)c3ccncc3n2)cc1)c1cncc(N2CCOCC2)c1` [Example 27, 2-{4-[methyl-(5-morpholin-4-yl-pyridin-3-yl)-amino]-phenoxy}-pyrido[3,4-d]pyrimidin-4-ol]: the pIC50 is 6.00 to 7.00 against JMJD2C and below 5.00 in assay [1].

Turning to `COCC(C)c1ccc(N(C)c2ccc(Oc3nc(O)c4ccncc4n3)cc2)cc1` (stereo not shown) [Example 29, 2-(4-{[4-(2-methoxy-1-methyl-ethyl)-phenyl]-methyl-amino}-phenoxy)-pyrido[3,4-d]pyrimidin-4-ol], the pIC50 (against JMJD2C; in assay [1]) was 6.00 to 7.00 each time.

As to `CC(CC#N)c1ccc(N(C)c2ccc(Oc3nc(O)c4ccncc4n3)cc2)cc1` (stereo not shown) [Example 30, 3-(4-{[4-(4-hydroxy-pyrido[3,4-d]pyrimidin-2-yloxy)-phenyl]-methyl-amino}-phenyl)-butyronitrile], the pIC50 on JMJD2C is 6.00 to 7.00; in assay [1], at least 7.00.

As for `Oc1nc(Oc2ccc3c(c2)CCN3c2ccccc2)nc2cnccc12` [Example 32, 2-(1-phenyl-2,3-dihydro-1H-indol-5-yloxy)-pyrido[3,4-d]pyrimidin-4-ol], the pIC50 against JMJD2C is 6.00 to 7.00; in assay [1] it was 5.00 to 6.00.

Consider `COC(C)c1ccc(N(C)c2ccc(Oc3nc(O)c4ccncc4n3)cc2)cc1` (stereo not shown) [Example 36, 2-(4-{[4-(1-methoxy-ethyl)-phenyl]-methyl-amino}-phenoxy)-pyrido[3,4-d]pyrimidin-4-ol], for which the pIC50 (against JMJD2C; in assay [1]) was 6.00 to 7.00 in each case.

Consider `CC(CN)c1ccc(N(C)c2ccc(Oc3nc(O)c4ccncc4n3)cc2)cc1` (stereo not shown) [Example 37, 2-(4-{[4-(2-amino-1-methyl-ethyl)-phenyl]-methyl-amino}-phenoxy)-pyrido[3,4-d]pyrimidin-4-ol], for which the pIC50 on JMJD2C is at least 7.00; in assay [1] it was below 5.00.

For `COCCN(C)CC(C)c1ccc(N(C)c2ccc(Oc3nc(O)c4ccncc4n3)cc2)cc1` (stereo not shown) [Example 38, 2-{4-[(4-{2-[(2-methoxy-ethyl)-methyl-amino]-1-methyl-ethyl}-phenyl)-methyl-amino]-phenoxy}-pyrido[3,4-d]pyrimidin-4-ol], the pIC50 at JMJD2C is 6.00 to 7.00; in assay [1] it was at least 7.00.

As to `CC(c1ccc(N(C)c2ccc(Oc3nc(O)c4ccncc4n3)cc2)cc1)C1CC1` (stereo not shown) [Example 39, 2-(4-{[4-(1-cyclopropyl-ethyl)-phenyl]-methyl-amino}-phenoxy)-pyrido[3,4-d]pyrimidin-4-ol], the pIC50 against JMJD2C is 5.00 to 6.00; in assay [1], at least 7.00.

Turning to `CN(c1ccc(Oc2nc(O)c3ccncc3n2)cc1)c1cccc(C#N)c1` [Example 40, 3-{[4-(4-hydroxy-pyrido[3,4-d]pyrimidin-2-yloxy)-phenyl]-methyl-amino}-benzonitrile], the pIC50 was 6.00 to 7.00 against JMJD2C and below 5.00 in assay [1].

As for `CN1CCN(Cc2cccc(N(C)c3ccc(Oc4nc(O)c5ccncc5n4)cc3)c2)CC1` [Example 41, 2-(4-{methyl-[3-(4-methyl-piperazin-1-ylmethyl)-phenyl]-amino}-phenoxy)-pyrido[3,4-d]pyrimidin-4-ol], the pIC50 on JMJD2C was at least 7.00; in assay [1], 5.00 to 6.00.

Consider `CN(c1ccc(Oc2nc(O)c3ccncc3n2)cc1)c1ccc(C2CC2)cc1` [Example 42, 2-{4-[(4-cyclopropyl-phenyl)-methyl-amino]-phenoxy}-pyrido[3,4-d]pyrimidin-4-ol], for which the pIC50 (on JMJD2C; in assay [1]) was 6.00 to 7.00 throughout.

As to `Cc1ccc(N(C)c2ccc(Oc3nc(O)c4ccncc4n3)cc2)nc1` [Example 43, 2-[4-[methyl-(5-methylpyridin-2-yl)amino]phenoxy]pyrido[3,4-d]pyrimidin-4-ol], the pIC50 (against JMJD2C; in assay [1]) was 6.00 to 7.00 each time.

With `CN(C)c1ccc(N(C)c2ccc(Oc3nc(O)c4ccncc4n3)cc2)cc1` [Example 44, 2-[4-[4-(dimethylamino)-N-methylanilino]phenoxy]pyrido[3,4-d]pyrimidin-4-ol], the pIC50 at JMJD2C was at least 7.00; in assay [1], below 5.00.

Regarding `CN1CCN(c2cccc(N(C)c3ccc(Oc4nc(O)c5ccncc5n4)cc3)c2)CC1=O` [Example 45, 4-[3-[4-(4-hydroxypyrido[3,4-d]pyrimidin-2-yl)oxy-N-methylanilino]phenyl]-1-methylpiperazin-2-one], the pIC50 against JMJD2C was 6.00 to 7.00; in assay [1], below 5.00.

In the case of `CN1CCN(c2ccc(N(C)c3ccc(Oc4nc(O)c5ccncc5n4)cc3)cc2)CC1` [Example 46, 2-[4-[N-methyl-4-(4-methylpiperazin-1-yl)anilino]phenoxy]pyrido[3,4-d]pyrimidin-4-ol], the pIC50 against JMJD2C is 6.00 to 7.00; in assay [1] it was below 5.00.

`CN(C)c1cccc(N(C)c2ccc(Oc3nc(O)c4ccncc4n3)cc2)c1` [Example 47, 2-[4-[3-(dimethylamino)-N-methylanilino]phenoxy]pyrido[3,4-d]pyrimidin-4-ol]: the pIC50 (on JMJD2C; in assay [1]) was 6.00 to 7.00 each time.

For the compound `CN(c1ccc(Oc2nc(O)c3ccncc3n2)cc1)c1cccc(N2CCCC2)c1` [Example 48, 2-[4-(N-methyl-3-pyrrolidin-1-ylanilino)phenoxy]pyrido[3,4-d]pyrimidin-4-ol], the pIC50 at JMJD2C was 6.00 to 7.00; in assay [1] it was below 5.00.

With `CN(c1ccc(Oc2nc(O)c3ccncc3n2)cc1)c1ccc(N2CCCC2)cc1` [Example 49, 2-[4-(N-methyl-4-pyrrolidin-1-ylanilino)phenoxy]pyrido[3,4-d]pyrimidin-4-ol], the negative logarithm of the IC50 (pIC50) was 5.00 to 6.00 on JMJD2C and 6.00 to 7.00 in assay [1].

Consider `CN(c1ccc(Oc2nc(O)c3ccncc3n2)cc1)c1cccc(N2CCC(N)CC2)c1` [Example 50, 2-[4-[3-(4-aminopiperidin-1-yl)-N-methylanilino]phenoxy]pyrido[3,4-d]pyrimidin-4-ol], for which the results for the pIC50 (against JMJD2C; in assay [1]) were at least 7.00 and below 5.00, respectively.

Consider `C[C@@H](c1ccccc1)N(C)c1ccc(Oc2nc(O)c3ccncc3n2)cc1` [Example 51, 2-[4-[methyl-[(1S)-1-phenylethyl]amino]phenoxy]pyrido[3,4-d]pyrimidin-4-ol], for which the pIC50 against JMJD2C was 6.00 to 7.00; in assay [1], 5.00 to 6.00.

Consider `C[C@H](c1ccccc1)N(C)c1ccc(Oc2nc(O)c3ccncc3n2)cc1` [Example 52, 2-[4-[methyl-[(1R)-1-phenylethyl]amino]phenoxy]pyrido[3,4-d]pyrimidin-4-ol], for which the figures for the pIC50 (against JMJD2C; in assay [1]) were 6.00 to 7.00 and 5.00 to 6.00, respectively.

In the case of `Cc1ccc(N(C)c2ccc(Oc3nc(O)c4ccncc4n3)cc2)cc1F` [Example 53, 2-[4-(3-fluoro-N,4-dimethylanilino)phenoxy]pyrido[3,4-d]pyrimidin-4-ol], the pIC50 (against JMJD2C; in assay [1]) was 6.00 to 7.00 in each case.

`Oc1nc(Oc2ccc(N3CCC(c4ccccc4)C3)cc2)nc2cnccc12` (stereo not shown) [Example 54, 2-[4-(3-phenylpyrrolidin-1-yl)phenoxy]pyrido[3,4-d]pyrimidin-4-ol]: the values for the pIC50 (at JMJD2C; in assay [1]) were 5.00 to 6.00 and below 5.00, respectively.
